According to paper PMC5620575 (Pharmaceutics, 2017):
≈ marks a conversion by molar mass, not a printed value. Like-named read-outs stand apart in the source and are kept apart here.

Tests used:
[1] = tissue to plasma distribution; format: in vivo; details: New Zealand White, rabbit, 2 x 10 mg/kg IV, 2 h after second dose, n = 3
Experimental: Three groups of White New Zealand rabbits (n = 3, each) weighing 3.0–3.5 kg were used. Each group received 10 mg/kg of one compounds administered intravenously over a period of 3–5 min, followed one hour later by a second IV dose of 10 mg/kg. Two h later, the rabbits were euthanized with an IV dose of pentobarbital. Plasma and tissue samples, including kidney, liver, lungs, spleen, heart, muscles, and vetrus fluid were collected immediately, and stored at −80 °C until analysis.
Plasma ultra-filtrate samples were analyzed using the same procedures for the plasma. Tissue homogenates were prepared by adding 1 gm of the tissues samples to 4 g of phosphate buffer, pH 7.4 (1:4, w/w), then homogenization using Tissue-Tearor, Bio-Spec Products Inc. (Bartlesville, OK, USA). Aliquots of 200 μL of tissue homogenate samples were analyzed using the procedures for the plasma and the concentrations were determined using plasma calibrators as described and validated previously for Lzd and PH027 [18].
The tissue to plasma concentration ratios for the three compounds were calculated from the ratio of the tissue homogenate concentrations corrected for the dilution during the homoginization process and the plasma concentrations. Generally, the three compounds have very good distribution to all tissues. The tissue to plasma distribution ratios for the novel compounds were more than one in kidney, lung, liver, heart, muscles and spleen, and the ratios were more than those for Lzd in all investigated tissues. Table 3, summerizes the tissue to plasma distribution ratios for the three compounds in different tissues.

Heamophilus influenzae = tested on: Heamophilus influenzae; parameters: method as in PMID 12467705, PMID 15911326, PMID 17140706, PMID 19376613, PMID 23811087; details: unit printed only for the neighbouring MICs of the sentence; cited from earlier work
[2] = solubility observed on preparing the oral dose in normal saline; format: physicochemical; details: 20 mg/kg oral dose in 20 mL of warm normal saline
Experimental: Three groups of rabbits (n = 4, each) received 20 mg/kg oral dose of each compound. […] Accurately weighted amounts of each compound were dissolved/suspended in 20 mL of warm normal saline using an ultrasound water bath. […] The solutions/suspensions of the three compounds were administered orally to the rabbits using a pediatric feeding tubes. After oral administration of each compound, serial blood samples were obtained through the IV catheter, over a period of 10 h after administration. Plasma was obtained from blood by centrifugation, and samples were kept at −80 °C until analysis.

[3] = pharmacokinetics after single IV administration; format: in vivo; details: rabbit, 5 mg/kg; for AUC / half-life / k el: plasma; for AUC / half-life / CLT: n = 4; for k el: n = 4, read-out: Elimination rate constant (converted)
Description: IV administration of the compounds under investigation, and collection of blood samples were through a catheter inserted in the marginal ear vein of the rabbit (I-Cath, CharterMed Inc., Winston-Salem, NC, USA). After IV drug administration, blood was withdrawn to fill the cannula and then reinjected three times before obtaining any blood samples to prevent contamination. Furthermore, the cannula was flushed with heparinized saline to prevent blockage of the cannula and prevent sample to sample contamination.
Urine samples were collected utilizing Foly Catheter (size French 8). The catheter was inserted into the rabbit bladder using a lubricant. When urine is collected over a specific time interval, the bladder was irrigated with 3 × 15 mL normal saline at 3 min, 6 min, and 10 min before the end of the urine collection interval [15, 16]. Irrigation of the bladder is necessary to obtain the majority of the drug eliminated in urine during the collection interval.
Three groups of rabbits (n = 4, each) received 5 mg/kg dose of each compound via the IV catheter. This dose was selected based on the results of a preliminary experiment to achieve measurable plasma concentrations for 8 h using our analytical methods, to ensure good characterization of the plasma concentration-time profile. Accurately weighed Lzd and PH027 powder were dissolved first in 600 μL of ethanol using an ultrasound water bath. The resulting solution was then diluted with normal saline to produce the solutions used for IV administration, which consist of the dose of the compound dissolved in 3 mL of 20% ethanol in normal saline. PH051 required the use of slightly larger volume of ethanol to achieve complete dissolution. So, 900 μL of ethanol were used, and the resulting solution used for IV administration consisted of PH051 dose dissolved in 3 mL of 30% ethanol in normal saline. The difference in the volume of ethanol administered, 300 μL, which was necessary to ensure complete dissolution of PH051, should not have a significant effect on the pharmacokinetic behavior of PH051. The solutions were administered slowly over a period of […] administration, serial blood and urine samples were obtained over a period of 8 h. Plasma was obtained from blood by centrifugation, and samples were kept at −80 °C until analysis. The volumes of urine samples were determined and recorded, and aliquots were kept at −80 °C until analysis.
The pharmacokinetic parameters for each of the three compounds including half-life (t1/2), volume of distribution (Vd), elimination rate constant (k), area under the plasma concentration-time curve (AUC), total body clearance (CLT), renal clearance (CLR), and oral bioavailability (F) were determined using the general pharmacokinetic parameter calculation procedures using PKPD tools for Microsoft Excel. The obtained pharmacokinetic parameters for each compound were compared using Statistical Package of Social Sciences (SPSS) to determine the difference in the pharmacokinetic behavior for the three compounds.

[4] = tested on: Staphylococcus aureus and Enterococci spp; parameters: method as in PMID 12467705, PMID 15911326, PMID 17140706, PMID 19376613, PMID 23811087; details: clinical isolates; cited from earlier work
[5] = brain, read-out: Tissue to Plasma Concentration Ratio, Brain
[6] = eye (vitreous fluid), read-out: Tissue to Plasma Concentration Ratio, Eye (vetrus fluid)
[7] = heart, read-out: Tissue to Plasma Concentration Ratio, Heart
[8] = kidney, read-out: Tissue to Plasma Concentration Ratio, Kidney
[9] = liver, read-out: Tissue to Plasma Concentration Ratio, Liver
[10] = lung, read-out: Tissue to Plasma Concentration Ratio, Lung
[11] = muscle, read-out: Tissue to Plasma Concentration Ratio, Muscles
[12] = spleen, read-out: Tissue to Plasma Concentration Ratio, Spleen

Row | Structure (SMILES) | Kp at 2 h [1, 5] | Kp at 2 h [1, 6] | Kp at 2 h [1, 7] | Kp at 2 h [1, 8] | Kp at 2 h [1, 9] | Kp at 2 h [1, 10] | Kp at 2 h [1, 11] | Kp at 2 h [1, 12] | MIC (Heamophilus influenzae) [mg/L] | solubility (observed) [2] | AUC ([3]; White New Zealand) [ng·h/mL] | half-life ([3]; White New Zealand) [min] | k el ([3]; White New Zealand) [s⁻¹] | CLT [3] [L/h/kg] | Fraction excreted unchanged in urine ([3]; ratio of renal clearance to total body clearance) | MIC [4] [mg/L] | CL renal ([3]; White New Zealand, urine and plasma, from renal excretion rate and plasma drug concentration, read-out: Renal clearance (converted)) [mL/h/kg]
1 | O=C1O[C@@H](Cn2ccnn2)CN1c1ccc(N2CCN(C(=O)C(F)(F)F)CC2)c(F)c1 [PH051] | 0.179 ± 0.07 | 0.81 ± 0.11 | 1.56 ± 0.22 | 2.22 ± 0.063 | 1.7 ± 0.19 | 1.5 ± 0.16 | 1.58 ± 0.21 | 1.41 ± 0.27 | 64 (≈ 145 µM) | least water-soluble of the three compounds | 1950 ± 986 | 175 ± 46.1 | 6.6e-05 | 2.564 ± 1.212 | only trace amounts | 0.25 to 0.5 | –
2 | O=C1O[C@@H](Cn2ccnn2)CN1c1ccc(N2CCOCC2)c(F)c1 [PH027] | 0.223 ± 0.016 | 0.989 ± 0.1 | 1.36 ± 0.087 | 2.78 ± 0.089 | 2.91 ± 0.168 | 1.59 ± 0.041 | 1.25 ± 0.059 | 1.51 ± 0.026 | – | – | 5670 ± 933 | 68.7 ± 12.1 | 0.000168 | 0.882 ± 0.23 | – | 0.5 to 1.0 | 3.8
